Data reported in patent US20190336579A1, “COMPOSITIONS AND METHODS TO INDUCE TARGETED APOPTOSIS BY MODULATING PROTEIN TYROSINE PHOSPHATASE 13 (PTPN13)” (National Jewish Health, priority 2010, published 2019).

Legend:
[1] = system: Fas phospho-Y291; assay: Western blot of Fas tyrosine 291 phosphorylation in MRC5 lung fibroblasts; type: cell-based, human; conditions: pervanadate 150 μM, time dependent
Description: PTPN13 has been shown in astrocytoma cells to dephosphorylate Fas at tyrosine 291. Little is known about the regulatory function of tyrosine phosphorylation of Fas. In another exemplary embodiment, to assess the effect of TNF-α and IFN-γ sensitization on the levels of Fas tyrosine phosphorylation, MRC5 lung fibroblasts were treated with TNF-α and IFN-γ for increasing amounts of time. Because TNF-α is known to increase tyrosine phosphorylation of many proteins, such as MAP kinases and AKT, within minutes following stimulation, the kinetics of TNF-α and IFN-γ induced tyrosine phosphorylation of Fas were assessed. MRC5 lung fibroblasts were treated with TNF-α (10 ng/ml) and IFN-γ (50 U/ml) for up to 48 hours. The cells were lysed and analyzed by western blot for phosphorylated Fas, using a phospho-specific antibody for Fas phosho-Y291. TNF-α and IFN-γ increased tyrosine phosphorylation of Fas at tyrosine residue 291 beginning at 18 hours. […] The pervanadate treated MRC5 cells were lysed and analyzed the tyrosine phosphorylation of Fas by western blotting. […] We then detected phosphorylated Fas by Western blot, using a phospho-specific antibody for Fas tyrosine residue 291. […]
FIG. 5: Inhibition of tyrosine phosphatase activity sensitizes lung fibroblasts to Fas-induced apoptosis. […] Caspase-8 activation was measured by a fluorescence based assay. […]

[2] = system: caspase-8; assay: Caspase-8 activation (Fas-induced apoptosis) in lung fibroblasts; type: cell-based, human; conditions: MRC5
Description: To assess the effects of these cytokines on PTPN13 expression, non-diseased normal human lung fibroblasts (NHLF), fibrotic human lung fibroblasts (FHLF) and a fetal lung fibroblast cell line, MRC5 cells, were treated with TNF-α (10/ng/ml), IFN-γ (50 U/ml) or with both cytokines for 6 hours. PTPN13 expression was measured by quantitative PCR (FIG. 2A). The primary lung fibroblasts from normal and fibrotic lung had equivalent levels of PTPN13 expression to the MRC5 lung fibroblast cell line. […] Treatment with TNF-α alone caused a 40% decrease in PTPN13 expression. Combined exposure to TNF-α and IFN-γ decreased PTPN13 mRNA expression by 80%. Protein lysates from normal, fibrotic and MRC5 fibroblasts treated for 36 hours with TNF-α (10/ng/ml), IFN-γ (50 U/ml) or with both cytokines were then analyzed for PTPN13 expression. […]
In one exemplary method, to assess whether PTPN13 expression prevents Fas-induced apoptosis, PTPN13 expression was knocked-down using siRNA. […] Apoptosis was assayed by quantifying activation of caspase-3 and caspase-8 (FIG. 3C).
In death-receptor mediated apoptosis, formation of the DISC (Death-Inducing Signaling Complex) is essential for the initiation of apoptosis. […] The cells were lysed, immunoprecipitated with anti-Fas antibody, and co-immunoprecipitated FADD and caspase-8 were detected by immunoblotting. […]

pervanadate
tyrosine phosphorylation of Fas [1]: increased
increase in caspase-8 activity over unstimulated cells ([2]; 150 μM pervanadate 2 hour pre-treatment, then Fas-activating antibody 250 ng/ml): 6 fold
increase in caspase-8 activity above untreated cells ([2]; 150 μM pervanadate alone): 2 fold
